What all share (type): physicochemical
Series [1] in a line: resistance to oxidative stress. The settings on record: compared with blarcamesine hydrochloric acid salt.
Series [2] is described as follows: crystal structure after wet grinding. Conditions: subjected to wet grinding.
Series [3] in a line: solubility over the relevant pH range. The settings on record: entire relevant pH range.

2 compounds from patent US12018005B1, “Blarcamesine co-crystals for the manufacture of pharmaceutical dosage form” (EGIS GYÓGYSZERGYÁR ZRT., priority 2023, dated 2024) can be followed below.

As to “(S)-(−)-blarcamesine hydrochloride, (R)-(+)-blarcamesine hydrochloride, ZnCl2 (1:1:1) co-crystal [ZnCl2 co-crystal]”, the “resistance to oxidative stress” value in series [1] is given as “more resistant to oxidative stress than the hydrochloric acid salt”. Moreover, the “retention of crystal structure / polymorphic form after wet grinding” value in series [2] is listed as “retains its crystal structure”.
Take `CN(C)CC1CCOC1(c1ccccc1)c1ccccc1.Cl` (racemic) [hydrochloric acid salt, [(2,2-diphenyloxolan-3-yl)methyl]dimethylamine hydrochloride]: the solubility result in series [3] was “extreme solubility”. In addition, in series [2], the “retention of crystal structure / polymorphic form after wet grinding” value is “polymorphic form of the hydrochloride salt changes”.
